Experimental data: the supplement of paper PMC4862054

Tests used:
Test in all cases: normalised response (% of control), CellTox Green; higher = less cell death (100 = DMSO, 0 = benzethonium chloride kill control)
Settings in all cases: incubation time: 72 h
BT-474 = tested on: BT-474
Outline: (§1)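 Breast cancer cell lines in 20 µl suspension were added to 384-well plates containing compound at 5 concentrations, spaced in 10-fold steps across a 10,000-fold range chosen for each compound, and incubated for 72 h. CellTox Green fluorescence was read at 485/520 nm, followed by CellTiter-Glo luminescence after 10 min at room temperature. Signals on each plate were normalised so that 0.1 % DMSO equals 100 and a positive kill control equals 0. Every value in the table is the normalised signal at one concentration of the series.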

BT-549 = tested on: BT-549
Outline: as §1

CAL-120 = tested on: CAL-120
Outline: as §1

CAL-148 = tested on: CAL-148
Outline: as §1

CAL-51 = tested on: CAL-51
Outline: as §1

CAL-85-1 = tested on: CAL-85-1
Outline: as §1

DU-4475 = tested on: DU-4475
Outline: as §1

HCC1599 = tested on: HCC1599
Outline: as §1

HCC1937 = tested on: HCC1937
Outline: as §1

MCF-10A = tested on: MCF-10A
Outline: as §1

MDA-MB-231 = tested on: MDA-MB-231
Outline: as §1

MDA-MB-436 = tested on: MDA-MB-436
Outline: as §1

MDA-MB-453 = tested on: MDA-MB-453
Outline: as §1

MDA-MB-468 = tested on: MDA-MB-468
Outline: as §1

MFM-223 = tested on: MFM-223
Outline: as §1

HCC1143 = tested on: HCC1143
Outline: as §1

HDQ-P1 = tested on: HDQ-P1
Outline: as §1

Hs578T = tested on: Hs578T
Outline: as §1

SMILES	normalised response (BT-474) [%]	normalised response (BT-549) [%]	normalised response (CAL-120) [%]	normalised response (CAL-148) [%]	normalised response (CAL-51) [%]	normalised response (CAL-85-1) [%]	normalised response (DU-4475) [%]	normalised response (HCC1599) [%]	normalised response (HCC1937) [%]	normalised response (MCF-10A) [%]	normalised response (MDA-MB-231) [%]	normalised response (MDA-MB-436) [%]	normalised response (MDA-MB-453) [%]	normalised response (MDA-MB-468) [%]	normalised response (MFM-223) [%]	normalised response (HCC1143) [%]	normalised response (HDQ-P1) [%]	normalised response (Hs578T) [%]
Cc1ccc(C(=O)N(CCCN)[C@@H](c2oc3cc(Cl)ccc3c(=O)c2Cc2ccccc2)C(C)C)cc1 (100 nM)	102	91.1	98.8	106	74.4	99.9	95.1	99.7	84.6	80	87.5	105	93.5	59.9	90.5	–	–	–
Cn1c(CCCC(=O)O)nc2cc(N(CCCl)CCCl)ccc21 [Bendamustine] (1000 nM)	103	119	99.9	101	116	101	103	101	119	67.1	117	81.8	104	121	105	84.8	95.9	–
Cn1c(CCCC(=O)O)nc2cc(N(CCCl)CCCl)ccc21 [Bendamustine] (10000 nM)	101	118	99.4	92.6	115	84.3	103	111	90.7	95.4	–	114	101	–	96.5	129	–	–
C=C(c1ccc(C(=O)O)cc1)c1cc2c(cc1C)C(C)(C)CCC2(C)C [Bexarotene] (1000 nM)	99.1	98.8	99.6	75.7	110	95.7	99.3	107	94.8	85	114	98.4	84.4	111	103	83.9	95.3	–
C=C(c1ccc(C(=O)O)cc1)c1cc2c(cc1C)C(C)(C)CCC2(C)C [Bexarotene] (10000 nM)	97.8	89.8	100	97.9	96.8	79.7	101	108	105	93.8	108	78.6	98.4	121	74.1	114	110	–
COc1cc2nccc(Oc3ccc(NC(=O)C4(C(=O)Nc5ccc(F)cc5)CC4)cc3)c2cc1OC [Cabozantinib] (100 nM)	100	101	98.2	102	100	106	97.5	92.3	120	88.3	103	–	99.4	136	96.3	–	91.5	102
N.N.[Cl][Pt][Cl] [Cisplatin] (1000 nM)	103	89.3	106	109	100	97.9	97.5	92	92.5	123	94.5	98.4	95.4	–	93.2	108	109	144
CN(C)/N=N/c1[nH]cnc1C(N)=O [Dacarbazine] (1000 nM)	102	114	100	101	105	103	101	101	116	111	116	77	103	–	–	86.7	88.7	–
CN(C)/N=N/c1[nH]cnc1C(N)=O [Dacarbazine] (10000 nM)	95	94.1	105	–	111	81.7	98.9	104	–	103	101	91.3	101	104	96.7	116	111	126
Cc1ccc(-n2nc(C(C)(C)C)cc2NC(=O)Nc2ccc(OCCN3CCOCC3)c3ccccc23)cc1 [Doramapimod] (10000 nM)	97.5	110	93.6	98.2	86.3	126	100	99	79.6	101	–	55.2	104	132	96.5	75.8	96.2	71.6
C#Cc1cccc(Nc2ncnc3cc(OCCOC)c(OCCOC)cc23)c1 [Erlotinib] (1000 nM)	98.3	96.5	103	69.6	78.1	70.4	103	103	121	69.5	101	101	108	–	86.7	112	100	99.5
C#Cc1cccc(Nc2ncnc3cc(OCCOC)c(OCCOC)cc23)c1 [Erlotinib] (10000 nM)	83.9	95.8	100	85.1	86	46	101	104	81.4	104	–	102	95.1	97.7	69.3	16.9	79.7	64.7
COc1cc([C@@H]2c3cc4c(cc3[C@@H](O[C@@H]3O[C@@H]5CO[C@@H](C)O[C@H]5[C@H](O)[C@H]3O)[C@H]3COC(=O)[C@H]23)OCO4)cc(OC)c1O [Etoposide] (1000 nM)	101	109	95.7	30.9	50.3	99.6	93.7	97	–	110	–	13.2	94.8	102	103	120	95.6	–
C[C@]12CC[C@@H]3c4ccc(O)cc4C[C@@H](CCCCCCCCC[S+]([O-])CCCC(F)(F)C(F)(F)F)[C@H]3[C@@H]1CC[C@@H]2O (some centres undefined) [Fulvestrant] (1000 nM)	102	91.9	97.9	100	117	74.9	99.7	98	98.5	101	115	93	97.9	–	97.8	113	111	121
O=P1(NCCCl)OCCCN1CCCl (centres undefined) [Ifosfamide] (10000 nM)	70.9	77.5	100	95.8	93.9	133	94.9	93.6	–	–	89	82.4	104	193	95.7	99.9	101	54.2
Cc1ccc(C(=O)Nc2ccc(CN3CCN(C)CC3)c(C(F)(F)F)c2)cc1C#Cc1cnc2cccnn12 [Ponatinib] (100 nM)	97.9	92	99.1	104	99	105	99.3	97.4	92.2	72.1	97.6	102	105	96.7	98.7	107	95.6	–
CNCc1ccc(-c2[nH]c3cc(F)cc4c3c2CCNC4=O)cc1 [Rucaparib] (1000 nM)	95.8	115	97.2	100	93.3	71.2	95.3	96.6	76	84.3	100	60.3	103	–	84.5	104	71.8	110
CNCc1ccc(-c2[nH]c3cc(F)cc4c3c2CCNC4=O)cc1 [Rucaparib] (10000 nM)	96.9	112	98.4	88.9	94.4	129	97.5	93.7	84.9	83.3	98.5	75.7	101	160	97.1	74.6	105	–
N[C@@H](CSC(c1ccccc1)(c1ccccc1)c1ccccc1)C(=O)O [S-trityl-L-cysteine] (4000 nM)	101	104	97.9	98.3	105	100	101	95.5	85.1	116	–	105	101	136	–	87	62.2	106
N[C@@H](CSC(c1ccccc1)(c1ccccc1)c1ccccc1)C(=O)O [S-trityl-L-cysteine] (40000 nM)	103	121	105	92.2	104	98.6	103	114	–	112	122	107	113	124	91	132	115	126
O=C1CCC(N2C(=O)c3ccccc3C2=O)C(=O)N1 (centres undefined) [Thalidomide] (1000 nM)	97.5	–	101	97.4	111	108	98.5	98.2	99	–	63.5	109	103	130	100	99	111	97.6
O=C1CCC(N2C(=O)c3ccccc3C2=O)C(=O)N1 (centres undefined) [Thalidomide] (10000 nM)	103	99.3	104	60.5	100	119	99.1	99.9	97.8	99	115	–	93.2	186	101	105	–	63.3
